Columns and labels:
[1] = tested on: Human immunodeficiency virus 1; experiment: Antiviral activity against wild-type HIV-1 IIIB infected in human MT4 cells assessed as reduction in virus-induced cytopathic effect incubated for 5 days by MTT assay; type: functional, organism-based; conditions: Human immunodeficiency virus 1, IIIB, MT4, 120 h
MT4 [2] = experiment: Cytotoxicity against human MT4 cells assessed as reduction in cell growth after 5 days by MTT assay; type: functional; conditions: MT4, 120 h, time 5 day
[3] = tested on: Human immunodeficiency virus 2; experiment: Antiviral activity against HIV-2 ROD infected in human MT4 cells assessed as virus-induced cytopathic effect incubated for 5 days by MTT assay; type: functional, organism-based; conditions: Human immunodeficiency virus 2, ROD, MT4, 120 h
[4] = tested on: Human immunodeficiency virus 1; experiment: Antiviral activity against HIV-1 IIIB infected in human C8166 cells; type: functional, organism-based; conditions: Human immunodeficiency virus 1, IIIB
MT4 [5] = experiment: Cytotoxicity against human MT4 cells assessed as reduction in cell growth incubated for 3 days by CellTiter-Glo luminescent assay; type: functional; conditions: MT4, 72 h, time 3 day
[6] = Selectivity index, ratio of CC50 for cytotoxicity against human MT2 cells to EC50 for antiviral activity against HIV-1 IIIB infected in human MT2 cells; type: toxicity, cell-based; conditions: read-out: Ratio CC50/EC50
[7] = tested on: Human immunodeficiency virus 1; experiment: Antiviral activity against HIV-1 IIIB infected in human C8166 cells assessed as reduction in virus -induced cytopathic effect measured after 48 hrs by CellTiter-Glo Luminescent cell viability assay; type: functional, organism-based; conditions: Human immunodeficiency virus 1, IIIB, C8166, 48 h
[8] = Cytotoxicity against african green monkey Vero cells assessed as reduction in cell viability measured after 72 hrs by MTT assay; type: toxicity, cell-based; conditions: chlorocebus sabaeus
C8166 = experiment: Cytotoxicity against human C8166 cells assessed as reduction in cell viability; type: functional
[9] = Selectivity index, ratio of CC50 for human MT4 cells to EC50 for antiviral activity against HIV1 infected in human MT4 cells; type: toxicity, cell-based; conditions: read-out: Ratio CC50/EC50
[10] = tested on: Human immunodeficiency virus 1; experiment: Antiviral activity against HIV1 IIIB infected in human MT4 cells assessed as reduction in virus-induced cytopathic effect incubated for 4 days by MTT assay; type: functional, organism-based; conditions: Human immunodeficiency virus 1, IIIB, MT4, 96 h
[11] = tested on: Human immunodeficiency virus 1; experiment: Antiviral activity against HIV-1 NL4-3 harboring infected Y181C mutant infected in human MT4 cells assessed as reduction in viral replication; type: functional, organism-based; conditions: Human immunodeficiency virus 1, NL4-3, MT4
[12] = tested on: Human immunodeficiency virus 1; experiment: Antiviral activity against wild type HIV-1 NL4-3 infected in human MT4 cells assessed as reduction in viral replication; type: functional, organism-based; conditions: Human immunodeficiency virus 1, NL4-3, MT4
[13] = tested on: Human immunodeficiency virus 1; experiment: Antiviral activity against wild type HIV-1 NL4-3 infected in human MT4 cells assessed as reduction in viral replication measured for 72 hrs by ELISA analysis; type: functional, organism-based; conditions: Human immunodeficiency virus 1, NL4-3, MT4, 72 h
[14] = tested on: Human immunodeficiency virus 1; experiment: Antiviral activity against HIV-1 NL4-3 infected in human MT2 cells assessed as reduction in viral replication assessed as inhibition of viral growth incubated for 72 hrs by ELISA; type: functional, organism-based; conditions: Human immunodeficiency virus 1, NL4-3, MT2, 72 h
[15] = tested on: Human immunodeficiency virus 1; experiment: Antiviral activity against HIV-1 NL4-3 harboring infected K103N mutant infected in human MT4 cells assessed as reduction in viral replication; type: functional, organism-based; conditions: Human immunodeficiency virus 1, NL4-3, MT4
MT4 [16] = experiment: Cytotoxicity against human MT4 cells; type: functional
[17] = read-out: ED50 (the source's name)

CCCNc1nc(Cc2c(F)cccc2F)c(C)c(=O)[nH]1
EC50 [1]: 20 nM
CC50 (MT4 [2]): > 200 µM

CC(C)c1c(Cc2ccccc2)nc(SCC(=O)c2ccc(F)cc2)[nH]c1=O
EC50 [3]: 32.2 µM
EC50 [4]: 78 nM
CC50 (MT4 [5]): 186 µM

CC(C)CCSc1nc(Cc2c(F)cccc2I)cc(=O)[nH]1
selectivity ratio [6]: > 4000
EC50 [7]: 50 nM
CC50 at 72 h [8]: > 200 µM
CC50 (C8166): > 200 µM

Cc1c([C@H](C)c2c(F)cccc2F)nc(SC2CCCCC2)[nH]c1=O
CC50 at 72 h [8]: > 200 µM
selectivity ratio [9]: > 10000

Oc1cc(Cc2ccccc2)nc(SC2CCCCC2)n1
EC50 [10]: 800 nM
selectivity ratio [9]: > 412

CCC(C)Sc1nc(O)cc(C(C)c2c(F)cccc2F)n1 (stereo not drawn)
CC50 at 72 h [8]: > 200 µM
selectivity ratio [9]: > 6670

Cc1c(O)nc(SC2CCCC2)nc1Cc1ccccc1
EC50 [10]: 800 nM
selectivity ratio [9]: > 555

COC(=O)[C@H](C)NP(=O)(Oc1ccccc1)Oc1nc(N(C)C)nc(C(C)c2c(F)cccc2F)c1C (stereo partly drawn)
EC50 [11]: 1200 nM
EC50 ([12]; read-out: EC50): 7 nM

CCCCNc1nc(Cc2c(F)cccc2F)c(C)c(=O)[nH]1
EC50 [1]: 6 nM
CC50 (MT4 [2]): 70 µM

CCOCn1c(Cc2cccc3ccccc23)c(CC)c(=O)[nH]c1=O
EC50 [12, 17]: 50 nM

Cc1c(C(C)c2c(F)cccc2F)nc(SCc2ccc(C#N)cc2)[nH]c1=O (stereo not drawn)
EC50 [13]: 7 nM

CCCCNc1nc(C(C)c2c(F)cccc2F)c(C)c(=O)[nH]1 (stereo not drawn)
EC50 [1]: 40 nM

CCCCSc1nc(O)c(C)c(C(C)c2c(F)cccc2F)n1 (stereo not drawn)
CC50 at 72 h [8]: 112 µM
selectivity ratio [9]: 14000

CCC(C)Sc1nc(Cc2c(F)cccc2I)cc(=O)[nH]1 (stereo not drawn)
selectivity ratio [6]: > 4000
EC50 [7]: 50 nM
CC50 at 72 h [8]: > 200 µM
CC50 (C8166): > 200 µM

CSCSc1nc(O)c(C(C)C)c(Cc2ccccc2)n1
EC50 [14]: 40 nM

CSCSc1nc(Cc2ccccc2)cc(=O)[nH]1
EC50 [14]: 20000 nM

CCC(C)Sc1nc(O)cc(Cc2cccc(C)c2)n1 (stereo not drawn)
EC50 [10]: 600 nM
selectivity ratio [9]: > 578

CCc1c(Cc2cccc3ccccc23)n(CSC)c(=O)[nH]c1=O
EC50 [12, 17]: 370 nM

CSCSc1nc(O)c(C)c(Cc2ccccc2)n1
EC50 [14]: 1200 nM

Cc1cccc(Cc2nc(SC3CCCC3)nc(O)c2C)c1
EC50 [10]: 600 nM
selectivity ratio [9]: > 530

Cc1c(OP(=O)(N[C@@H](C)C(=O)OCc2ccccc2)Oc2ccccc2)nc(N(C)C)nc1C(C)c1c(F)cccc1F (stereo partly drawn)
EC50 [11]: 1100 nM
EC50 ([12]; read-out: EC50): 10 nM

Cc1c(O)nc(SCC(C)C)nc1Cc1ccccc1
EC50 [10]: 800 nM
selectivity ratio [9]: 162

CCc1c(C(C)c2c(F)cccc2F)nc(SC/C=C/c2ccc(OC)cc2)[nH]c1=O (stereo not drawn)
EC50 [13]: 2 nM

Cc1c(Cc2c(Cl)cccc2Cl)nc(SCC(=O)Nc2ccc(Cl)cc2)[nH]c1=O
selectivity ratio [9]: > 836
EC50 [4]: 320 nM
CC50 (MT4 [5]): > 266 µM

Cc1c(OP(=O)(N[C@@H](C)C(=O)OC(C)(C)C)Oc2ccccc2)nc(N(C)C)nc1C(C)c1c(F)cccc1F (stereo partly drawn)
EC50 [11]: 1000 nM
EC50 ([12]; read-out: EC50): 8 nM

CCSCSc1nc(=O)c(CC)c(Cc2cccc3ccccc23)[nH]1
EC50 [12, 17]: 2700 nM

C#CCOC(=O)[C@H](C)NP(=O)(Oc1ccccc1)Oc1nc(N(C)C)nc(C(C)c2c(F)cccc2F)c1C (stereo partly drawn)
EC50 [11]: 500 nM
EC50 ([12]; read-out: EC50): 3 nM

CCc1c(Cc2ccccc2)nc(SCC(=O)c2ccc(F)cc2)[nH]c1=O
EC50 [3]: 16.3 µM
EC50 [4]: 70 nM
CC50 (MT4 [5]): 240 µM

Cc1c(C(C)c2c(F)cccc2F)nc(SCc2ccc([N+](=O)[O-])cc2)[nH]c1=O (stereo not drawn)
EC50 [15]: 0.65 µM
EC50 [13]: 3 nM

CCc1c(Cc2cccc3ccccc23)[nH]c(SCSC)nc1=O
EC50 [12, 17]: 4600 nM

CCC(C)Sc1nc(O)cc(Cc2ccccc2)n1 (stereo not drawn)
EC50 [14]: 80 nM

Cc1c(O)nc(SC2CCCCC2)nc1Cc1ccccc1
EC50 [10]: 600 nM
selectivity ratio [9]: > 530

CC(=O)c1ccc(Cn2cc(CSc3nc(Cc4c(Cl)cccc4Cl)c(C)c(=O)[nH]3)nn2)cc1
CC50 (MT4 [16]): 32.5 µM

CCc1c(C(C)c2c(F)cccc2F)nc(SC/C=C/c2ccc([N+](=O)[O-])cc2)[nH]c1=O (stereo not drawn)
EC50 [13]: 4 nM

CCC(C)Sc1nc(O)c(C)c(Cc2ccccc2)n1 (stereo not drawn)
EC50 [14]: 200 nM

Cc1c(C(C)c2c(F)cccc2F)nc(NC(C)C)[nH]c1=O (stereo not drawn)
EC50 [1]: 20 nM
CC50 (MT4 [2]): > 200 µM

CC(c1cc(O)nc(SC2CCCCC2)n1)c1c(F)cccc1F (stereo not drawn)
CC50 at 72 h [8]: > 200 µM
selectivity ratio [9]: > 6670

Cc1c(Cc2c(Cl)cccc2Cl)nc(SCC(=O)Nc2ccc(F)c(F)c2)[nH]c1=O
selectivity ratio [9]: > 387
EC50 [4]: 690 nM
CC50 (MT4 [5]): > 265 µM

CCc1c(O)nc(SCSC)nc1Cc1ccccc1
EC50 [14]: 800 nM

Cc1c(Cc2c(Cl)cccc2Cl)nc(SCC(=O)Nc2ccc(Br)cc2)[nH]c1=O
selectivity ratio [9]: > 1330
EC50 [4]: 180 nM
CC50 (MT4 [5]): > 243 µM

COc1ccc(CSc2nc(C(C)c3c(Cl)cccc3Cl)c(C)c(=O)[nH]2)cc1 (stereo not drawn)
EC50 [15]: 5.72 µM
EC50 [13]: 1 nM

CCC(C)Sc1nc(O)cc(Cc2c(F)cccc2F)n1 (stereo not drawn)
selectivity ratio [6]: > 5000
EC50 [7]: 40 nM
CC50 at 72 h [8]: > 200 µM
CC50 (C8166): > 200 µM

CC(C)CCSc1nc(Cc2c(F)cccc2F)cc(=O)[nH]1
selectivity ratio [6]: > 4000
EC50 [7]: 50 nM
CC50 at 72 h [8]: > 200 µM
CC50 (C8166): > 200 µM

Cc1c(O)nc(SC2CCCCC2)nc1C(C)c1c(F)cccc1F (stereo not drawn)
CC50 at 72 h [8]: > 200 µM
selectivity ratio [9]: > 33300

Cc1c(O)nc(SCC(C)C)nc1C(C)c1c(F)cccc1F (stereo not drawn)
CC50 at 72 h [8]: 200 µM
selectivity ratio [9]: 28600

COc1ccc(CSc2nc(C(C)c3c(F)cccc3F)c(C)c(=O)[nH]2)cc1 (stereo not drawn)
EC50 [13]: 2 nM

Cc1c(Cc2c(Cl)cccc2Cl)nc(SCc2cn(Cc3ccc(S(N)(=O)=O)cc3)nn2)[nH]c1=O
CC50 (MT4 [16]): 95.5 µM

CCC(C)Sc1nc(Cc2ccccc2)c(C(C)C)c(=O)[nH]1 (stereo not drawn)
EC50 [14]: 100 nM

COc1ccc(C(=O)CSc2nc(Cc3ccccc3)c(C)c(=O)[nH]2)cc1
EC50 [3]: 0.42 µM
EC50 [4]: 370 nM
CC50 (MT4 [5]): > 290 µM

Cc1c(Cc2c(Cl)cccc2Cl)nc(SCC(=O)Nc2ccc([N+](=O)[O-])cc2)[nH]c1=O
selectivity ratio [9]: 264
EC50 [4]: 990 nM
CC50 (MT4 [5]): 45.8 µM

CCC(C)Sc1nc(O)c(C)c(Cc2c(Cl)cccc2Cl)n1 (stereo not drawn)
selectivity ratio [6]: > 4000
EC50 [7]: 50 nM
CC50 at 72 h [8]: > 200 µM
CC50 (C8166): > 200 µM

CCc1c(Cc2ccccc2)nc(SCC(=O)c2ccc(OC)cc2)[nH]c1=O
EC50 [3]: 18.9 µM
EC50 [4]: 45 nM
CC50 (MT4 [5]): 178 µM

Cc1c(Cc2ccccc2)nc(SCC(=O)c2ccc(F)cc2)[nH]c1=O
EC50 [3]: 275 µM
EC50 [4]: 180 nM
CC50 (MT4 [5]): 275 µM

CCc1c(Cc2ccccc2)nc(SC(C)CC)[nH]c1=O (stereo not drawn)
EC50 [14]: 40 nM

CCOC(=O)[C@H](C)NP(=O)(Oc1ccccc1)Oc1nc(N(C)C)nc(C(C)c2c(F)cccc2F)c1C (stereo partly drawn)
EC50 [11]: 1000 nM
EC50 ([12]; read-out: EC50): 6 nM

CCC(C)Sc1nc(O)cc(Cc2c(Cl)cccc2Cl)n1 (stereo not drawn)
selectivity ratio [6]: > 1430
EC50 [7]: 140 nM
CC50 at 72 h [8]: > 200 µM
CC50 (C8166): > 200 µM

COc1ccc(C(=O)CSc2nc(Cc3ccccc3)c(C(C)C)c(=O)[nH]2)cc1
EC50 [3]: 13.4 µM
EC50 [4]: 30 nM
CC50 (MT4 [5]): 203 µM

COc1ccc(/C=C/CSc2nc(C(C)c3c(F)cccc3F)c(C)c(=O)[nH]2)cc1 (stereo not drawn)
EC50 [13]: 2 nM
